According to publication PMC10803553 (Frontiers in Oncology, 2024):
“Also recorded” adds a separate entry of the source.

Columns and labels:
EML4-ALK (F1174S) V3a = target: T1, EML4-ALK (F1174S) V3a (Homo sapiens, UniProt Q9HC35+Q9UM73, F1174S); conditions: NL20 cells, 0 nM to 1000 nM, pALK-Y1604 readout
T1 sequence (Q9HC35+Q9UM73 with tags, fused parts or gaps Q9UM73:F1174S): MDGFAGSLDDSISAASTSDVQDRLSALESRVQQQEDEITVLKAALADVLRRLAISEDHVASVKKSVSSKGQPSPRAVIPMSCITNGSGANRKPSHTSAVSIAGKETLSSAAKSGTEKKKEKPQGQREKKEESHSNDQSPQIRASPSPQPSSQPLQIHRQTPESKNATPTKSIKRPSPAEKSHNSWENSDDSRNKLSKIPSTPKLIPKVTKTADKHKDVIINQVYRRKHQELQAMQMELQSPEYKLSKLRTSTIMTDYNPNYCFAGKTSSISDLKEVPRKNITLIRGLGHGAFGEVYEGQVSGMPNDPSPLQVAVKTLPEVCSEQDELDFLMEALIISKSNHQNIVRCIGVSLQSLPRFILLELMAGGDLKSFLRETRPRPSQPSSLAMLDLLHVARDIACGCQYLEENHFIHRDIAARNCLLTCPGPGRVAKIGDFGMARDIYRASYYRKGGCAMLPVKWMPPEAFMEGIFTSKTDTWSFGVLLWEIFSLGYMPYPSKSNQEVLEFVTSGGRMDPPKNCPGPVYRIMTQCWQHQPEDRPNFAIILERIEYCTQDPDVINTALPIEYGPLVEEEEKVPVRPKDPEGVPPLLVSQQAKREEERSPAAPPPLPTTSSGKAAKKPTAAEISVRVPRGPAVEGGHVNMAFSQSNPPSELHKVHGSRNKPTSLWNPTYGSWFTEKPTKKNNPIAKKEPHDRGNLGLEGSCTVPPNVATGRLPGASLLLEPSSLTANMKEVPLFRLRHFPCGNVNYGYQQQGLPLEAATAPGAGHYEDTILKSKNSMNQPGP
Procedure: (§1) SK-N-AS cells were transfected with Lipofectamine 3000 (Invitrogen, Carlsbad. CA) following the manufacturer’s instruction. […] After 24-36 hours culture, cells were treated with serial dilutions of the indicated inhibitors for 2 hours.
Cells were washed with ice-cold PBS prior to harvest in lysis buffer [25 mM of Tris-Cl, pH7.5, 150 mM of NaCl, 1% (v/v) Triton X-100, 1 mM of DTT, and protease inhibitor cocktail]. Cell lysates were clarified by centrifugation at 14,000 rpm for 15 minutes at 4°C. Samples were boiled in 1x SDS sample buffer and analyzed by immunoblotting. Enhanced chemiluminescence (ECL) and fluorescence blot images were taken with LI-COR Odyssey FC instrument and Image Studio 5.2 software (Lincoln, NE). […] The intensity of different protein bands was quantified with Image Studio Lite 5.2 software (Lincoln, NE). Ratios were shown either directly or normalized. […] GraphPad Prism 6.0 was used to calculate IC50 values by fitting data to a log (inhibitor concentration) vs. normalized response (variable slope) equation.
We therefore tested the sensitivity of these EML4-ALK mutants to ALK inhibitors. […] Dose-dependent ALK activity responses were followed with anti-pALK-Y1604 as readout.
Dose-dependent ALK activity responses were followed employing anti-pALK-Y1604 as readout.

EML4-ALK F1174S NSCLC = conditions: one NSCLC patient, after resistance to crizotinib; alectinib 6 months, ceritinib 3 months, brigatinib 1 month
EML4-ALK V1 mRNA = experiment: RT-PCR for EML4-ALK V1 mRNA after ALK inhibition in DFCI032 cells; assay type: cell-based, human; conditions: 30 nM lorlatinib, 24 hours
Procedure: Reverse transcription was performed with the SuperScript IV First-Strand Synthesis System (Invitrogen, Carlsbad. CA) following the manufacturer’s protocol. PCR was performed with DreamTaq Hot Start Green PCR Master Mix (ThermoScientific, Waltham, MA). The PCR primers used for ALK were 5’-[…]-3’ and 5’-[…]-3’; and the primers for Actin were 5’-[…]-3’ and 5’-[…]-3’.
as §1

[1] = tested on: wildtype and F1174S mutant EML4-ALK V3a and EML4-ALK V3b; experiment: Dose-dependent pALK-Y1604 response to crizotinib or lorlatinib in NL20 cells, wildtype and F1174S mutant V3a/b (immunoblot, qualitative); assay type: cell-based, human; conditions: 0 nM to 1000 nM, 2 hours

| SMILES | sensitivity of EML4-ALK (F1174S) V3a to ALK inhibition relative to EML4-ALK V3a (qualitative) (EML4-ALK (F1174S) V3a) | clinical response to ALK TKI (EML4-ALK F1174S NSCLC) | ALK mRNA levels in response to treatment (EML4-ALK V1 mRNA) | inhibition of ALK-Y1604 phosphorylation (qualitative) [1] |
| --- | --- | --- | --- | --- |
| COc1cc(N2CCC(N3CCN(C)CC3)CC2)ccc1Nc1ncc(Cl)c(Nc2ccccc2P(C)(C)=O)n1 [brigatinib] | strongest effect; also recorded: more sensitive | no detectable response |  |  |
| Cc1cc(Nc2ncc(Cl)c(Nc3ccccc3S(=O)(=O)C(C)C)n2)c(OC(C)C)cc1C1CCNCC1 [ceritinib] | more sensitive | no detectable response |  |  |
| C[C@H]1Oc2cc(cnc2N)-c2c(nn(C)c2C#N)CN(C)C(=O)c2ccc(F)cc21 [lorlatinib] |  |  | decreased ALK mRNA levels | superior inhibition effect |
